Results: the NIST ThermoML archive (doi:10.1021/je060271a)
Numbers after ± are expanded uncertainties.

Conditions: 323.14 K, Liquid, Vibrating tube method

CCCCCC(=O)OCC(COC(=O)CCCCC)(COC(=O)CCCCC)COC(=O)CCCCC [pentaerythritol tetrahexanoate]
Conditions	mass density [kg/m3]
916.7 kPa	973.3 ± 1.2
923.3 kPa	973.2 ± 1.2
1440.1 kPa	973.7 ± 1.2
1446.1 kPa	973.7 ± 1.2
1451.7 kPa	973.5 ± 1.2
1458.6 kPa	973.7 ± 1.2
1465.1 kPa	973.6 ± 1.2
1499.4 kPa	973.7 ± 1.2
2143.7 kPa	974.1 ± 1.2
2154.2 kPa	974.2 ± 1.2
2163.4 kPa	974.2 ± 1.2
2899 kPa	974.7 ± 1.2
2935.4 kPa	974.6 ± 1.2
2971.1 kPa	974.8 ± 1.2
2984.1 kPa	974.9 ± 1.2
2995.2 kPa	974.8 ± 1.2
3008.5 kPa	974.8 ± 1.2
3019.8 kPa	974.7 ± 1.2
3032.8 kPa	974.8 ± 1.2
3043.7 kPa	974.8 ± 1.2
3057.4 kPa	974.8 ± 1.2
3071.1 kPa	974.7 ± 1.2
3082.4 kPa	974.9 ± 1.2
3093.6 kPa	974.9 ± 1.2
3107.5 kPa	974.7 ± 1.2
3120.8 kPa	974.9 ± 1.2
3132.5 kPa	975 ± 1.2
3143.7 kPa	975 ± 1.2
3157.8 kPa	974.8 ± 1.2
3169 kPa	974.9 ± 1.2
3182.6 kPa	974.9 ± 1.2
3194.3 kPa	974.9 ± 1.2
3207.9 kPa	974.9 ± 1.2
3219.3 kPa	975.1 ± 1.2
3233.3 kPa	974.9 ± 1.2
3245.1 kPa	974.9 ± 1.2
3259.7 kPa	974.9 ± 1.2
3271.8 kPa	975 ± 1.2
3285.5 kPa	975 ± 1.2
3298 kPa	974.9 ± 1.2
3312.4 kPa	975 ± 1.2
3324.7 kPa	975.1 ± 1.2
3339.9 kPa	975.1 ± 1.2
3353.1 kPa	975 ± 1.2
3384.1 kPa	975 ± 1.2
3463.3 kPa	975.1 ± 1.2
3495.4 kPa	975.1 ± 1.2
4052.6 kPa	975.6 ± 1.2
4071.6 kPa	975.6 ± 1.2
4087 kPa	975.6 ± 1.2
4103.5 kPa	975.6 ± 1.2
4122.2 kPa	975.5 ± 1.2
4176.9 kPa	975.4 ± 1.2
4193.2 kPa	975.6 ± 1.2
4530.6 kPa	975.9 ± 1.2
4548.8 kPa	975.8 ± 1.2
4570.3 kPa	975.9 ± 1.2
4588.6 kPa	975.9 ± 1.2
4610.6 kPa	976 ± 1.2
4632.6 kPa	975.9 ± 1.2
4650.7 kPa	976 ± 1.2
4669.3 kPa	975.9 ± 1.2
4691.8 kPa	975.9 ± 1.2
4714.6 kPa	975.9 ± 1.2
4733.6 kPa	976 ± 1.2
4753.2 kPa	975.9 ± 1.2
4776.2 kPa	975.9 ± 1.2
4795.8 kPa	976.1 ± 1.2
4819.1 kPa	975.9 ± 1.2
4838.9 kPa	976.1 ± 1.2
4862.6 kPa	976.2 ± 1.2
4886.4 kPa	976.1 ± 1.2
